Experimental data published in patent US10683279B2, “Apoptosis signal-regulating kinase 1 inhibitors and methods of use thereof” (Enanta Pharmaceuticals, Inc., priority 2017, dated 2020).

molecular target: ASK1 (Homo sapiens (Human), UniProt Q99683); assay: ASK1 kinase inhibition, HTRF KinEASE Assay System (TR-FRET); format: biochemical; conditions: 5 nM ASK1 kinase, 1 uM STK3 peptide substrate, 100 uM ATP, 3 hours
Protocol: The ability (IC50) of compounds to inhibit ASK1 kinase activity was determined by HTRF® KinEASE™ Assay System.
ASK1 was purchased from Thermofisher (Catalogue # PV401.1), ATP was purchased from Sigma (Catalogue # A7699), HTRF® KinEASE™ Assay System was obtained from Cisbio (Bedford, Mass). ½ Area plate was purchased from Perkin Elmer (Catalogue # #6005560). HTRF® KinEASE™-STK is a generic method for measuring serine/threonine kinase activities using a time-resolved fluorescence resonance energy transfer (TR-FRET) immunoassay. The IC50 value for each compound was determined in the presence of compound (various concentration from 0 to 10 μM) and a fixed amount of ATP and peptide substrates. The test compound, luM STK3 peptide substrate, and 5 nM of ASK1 kinase are incubated with kinase reaction buffer containing 50 mM HEPES pH 7.5, 0.01% BRIJ-35, 10 mM MgCl2, and 1 mM EGTA for 30 minutes. 100 uM ATP is added to start kinase reaction and incubated for 3 hours. The STK3-antibody labeled with Eu^3+-Cryptate and 125 nM streptavidin-XL665 are mixed in a single addition with stop reagents provided by the Cisbio kit used to stop the kinase reaction. Fluorescence is detected using an Envision Multilabeled 2014 reader from PerkinElmer. The Fluorescence is measured at 615 nm (Cryptate) and 665 nm (XL665) and a ratio of 665 nm/615 nm is calculated for each well. The resulting TR-FRET is proportional to the phosphorylation level. Staurosporine was used as the positive control. IC50 was determined by XLfit 5.3.
By using above method, the inhibition of ASK1 was tested for the compound of formula (I). IC50 ranges are as follows: A<1 nM; 1 nM<B<10 nM; 10 nM<C<100 nM; 100 nM<D

ASK1, sequence (Q99683 whole entry): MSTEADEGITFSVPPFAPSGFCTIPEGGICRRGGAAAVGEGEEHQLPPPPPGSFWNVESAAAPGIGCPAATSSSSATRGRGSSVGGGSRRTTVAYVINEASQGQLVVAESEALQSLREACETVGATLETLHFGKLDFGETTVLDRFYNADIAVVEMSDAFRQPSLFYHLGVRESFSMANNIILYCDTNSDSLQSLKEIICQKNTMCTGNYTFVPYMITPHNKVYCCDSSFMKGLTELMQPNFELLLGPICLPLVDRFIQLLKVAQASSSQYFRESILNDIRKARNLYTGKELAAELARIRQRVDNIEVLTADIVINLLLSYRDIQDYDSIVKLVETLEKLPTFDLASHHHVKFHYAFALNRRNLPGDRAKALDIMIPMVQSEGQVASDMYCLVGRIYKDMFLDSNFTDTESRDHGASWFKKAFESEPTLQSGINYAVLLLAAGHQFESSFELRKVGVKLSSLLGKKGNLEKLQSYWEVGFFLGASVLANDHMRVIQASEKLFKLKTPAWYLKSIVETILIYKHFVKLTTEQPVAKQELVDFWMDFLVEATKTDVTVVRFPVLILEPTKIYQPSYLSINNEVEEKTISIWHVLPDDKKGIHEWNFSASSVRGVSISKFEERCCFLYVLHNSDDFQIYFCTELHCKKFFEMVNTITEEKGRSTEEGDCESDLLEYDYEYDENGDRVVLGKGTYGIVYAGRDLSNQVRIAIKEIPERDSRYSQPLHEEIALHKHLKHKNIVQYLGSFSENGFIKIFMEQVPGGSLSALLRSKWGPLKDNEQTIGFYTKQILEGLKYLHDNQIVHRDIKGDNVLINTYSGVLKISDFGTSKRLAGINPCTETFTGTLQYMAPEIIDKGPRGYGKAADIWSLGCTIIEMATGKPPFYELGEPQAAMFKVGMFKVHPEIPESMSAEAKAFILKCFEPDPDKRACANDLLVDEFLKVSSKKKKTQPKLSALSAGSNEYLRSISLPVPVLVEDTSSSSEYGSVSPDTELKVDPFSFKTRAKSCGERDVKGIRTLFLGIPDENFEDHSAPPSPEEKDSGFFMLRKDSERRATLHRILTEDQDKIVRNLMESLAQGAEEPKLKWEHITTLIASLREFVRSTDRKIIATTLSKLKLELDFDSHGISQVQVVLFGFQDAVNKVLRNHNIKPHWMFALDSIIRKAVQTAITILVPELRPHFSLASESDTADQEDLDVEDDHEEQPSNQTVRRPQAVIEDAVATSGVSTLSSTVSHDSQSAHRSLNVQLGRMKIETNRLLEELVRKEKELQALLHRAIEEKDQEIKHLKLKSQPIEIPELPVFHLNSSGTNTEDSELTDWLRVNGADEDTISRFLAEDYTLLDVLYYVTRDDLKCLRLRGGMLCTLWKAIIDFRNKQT

IC50 | Compound
1 to 10 nM | Cc1cc(F)c(C(=O)Nc2cccc(-c3nnnn3[C@H](C)CO)n2)cc1-n1cnc(C(C)(C)C)c1 [Example 30a]
10 to 100 nM | CC(C)n1nnnc1-c1nc(NC(=O)c2cc(-n3cnc(C4CC4)c3)c(N3CCCCC3)cn2)cs1 [Example 41a]
1 to 10 nM | Cc1cnc(C(=O)Nc2cccc(-c3nnnn3C(C)C)n2)cc1-n1cnc(C(F)(F)F)c1 [Example 50a]
> 100 nM | CC(=O)OC[C@@H](C)n1nnnc1-c1cccc(NC(=O)c2cc(-n3cnc(C4CC4)c3)c(C)cc2F)n1 [Example 6a, (R)-2-(5-(6-(5-(4-cyclopropyl-1H-imidazol-1-yl)-2-fluoro-4-methyl-benzamido)pyridin-2-yl)-1H-tetrazol-1-yl)propyl acetate]
10 to 100 nM | Cc1cc(F)c(C(=O)Nc2cccc(-c3nnnn3C(C)C(F)(F)F)n2)cc1-n1cnc(C2CC2)c1 (stereo not shown) [Example 16a]
1 to 10 nM | CC(C)n1nnnc1-c1nc(NC(=O)c2cc(-n3cnc(C4CC4)c3)c(N3CCOCC3)cn2)cs1 [Example 45a]
1 to 10 nM | COc1cc(C)c(-n2cnc(C3CC3)c2)cc1C(=O)Nc1cccc(-c2nnnn2C(C)C)n1 [Example 60a]
1 to 10 nM | C[C@H](CO)n1nnnc1-c1cccc(NC(=O)c2cc(-n3cnc(C4CC4)c3)c(C(F)F)cc2F)n1 [Example 32a]
1 to 10 nM | Cc1cc(F)c(C(=O)Nc2cccc(-c3nnnn3C(C)C)n2)cc1-n1cnc(C2CC2)c1 [Example 1a, 5-(4-cyclopropyl-1H-imidazol-1-yl)-2-fluoro-N-(6-(1-isopropyl-1H-tetrazol-5-yl)pyridin-2-yl)-4-methylbenzamide]
1 to 10 nM | Cc1cc(F)c(C(=O)Nc2cccc(-c3nnnn3C3(C)CC3)n2)cc1-n1cnc(C2CC2)c1 [Example 3a, 5-(4-cyclopropyl-1H-imidazol-1-yl)-2-fluoro-N-(6-(1-(1-methylcyclo-propyl)-1H-tetrazol-5-yl)pyridin-2-yl)-4-methylbenzamide]
10 to 100 nM | CCCC(=O)OC[C@@H](C)n1nnnc1-c1cccc(NC(=O)c2cc(-n3cnc(C4CC4)c3)c(C)cc2F)n1 [Example 24a]
1 to 10 nM | Cc1cc(F)c(C(=O)Nc2cccc(-c3nnnn3C3CCCC3)n2)cc1-n1cnc(C2CC2)c1 [Example 8a]
1 to 10 nM | Cc1cc(F)c(C(=O)Nc2cccc(-c3nnnn3C(C)C)n2)cc1-n1cnc(C(C)(C)C)c1 [Example 29a]
> 100 nM | Cc1cc(F)c(C(=O)Nc2cccc(-n3nnnc3C(C)C)n2)cc1-n1cnc(C(F)(F)F)c1 [Example 2b]
1 to 10 nM | COc1cc(C)c(-n2cnc(C3CC3)c2)cc1C(=O)Nc1cccc(-c2nnnn2[C@H](C)CO)n1 [Example 61a]
1 to 10 nM | CC(C)n1nnnc1-c1nc(NC(=O)c2cc(-n3cnc(C4CC4)c3)c(F)cn2)cs1 [Example 38a]
> 1000 nM | Cc1cc(F)c(C(=O)Nc2cccc(-c3nnnn3[C@H](C)COC(=O)c3ccccc3)n2)cc1-n1cnc(C2CC2)c1 [Example 25a]
10 to 100 nM | Cc1cc(F)c(C(=O)Nc2cccc(-c3nnnn3C(C)C)c2)cc1-n1cnc(C2CC2)c1 [Example 35a]
1 to 10 nM | Cc1cc(F)c(C(=O)Nc2cccc(-c3nnnn3[C@@H]3CCOC3)n2)cc1-n1cnc(C2CC2)c1 [Example 17a]
10 to 100 nM | Cc1cnc(C(=O)Nc2cccc(-n3nnnc3C(C)C)n2)cc1-n1cnc(C(F)(F)F)c1 [Example 4b]
1 to 10 nM | Cc1cc(F)c(C(=O)Nc2cccc(-c3nnnn3C3CC3)n2)cc1-n1cnc(C2CC2)c1 [Example 2a, 5-(4-cyclopropyl-1H-imidazol-1-yl)-2-fluoro-N-(6-(1-cyclopropyl-1H-tetrazol-5-yl)pyridin-2-yl)-4-methylbenzamid]
1 to 10 nM | CC(C)n1nnnc1-c1nc(NC(=O)c2cc(-n3cnc(C4CC4)c3)c(N3CCN(C)CC3)cn2)cs1 [Example 44a]
1 to 10 nM | Cc1cnc(C(=O)Nc2cccc(-c3nnnn3[C@H](C)CO)n2)cc1-n1cnc(C2CC2)c1 [Example 49a]
10 to 100 nM | Cc1cc(F)c(C(=O)Nc2cccc(-c3cnnn3C(C)C)n2)cc1-n1cnc(C2CC2)c1 [Example 4c, 5-(4-cyclopropyl-1H-imidazol-1-yl)-2-fluoro-N-(6-(1-isopropyl-1H-1,2,3-triazol-5-yl)pyridin-2-yl)-4-methylbenzamide]
1 to 10 nM | CC(C)n1nnnc1-c1cccc(NC(=O)c2cc(-n3cnc(C4CC4)c3)c(C(F)F)cn2)n1 [Example 54a]
1 to 10 nM | CC(=O)OC[C@H](C)n1nnnc1-c1cccc(NC(=O)c2cc(-n3cnc(C4CC4)c3)c(C)cc2F)n1 [Example 4a, (S)-2-(5-(6-(5-(4-cyclopropyl-1H-imidazol-1-yl)-2-fluoro-4-methyl-benzamido)pyridin-2-yl)-1H-tetrazol-1-yl)propyl acetate]

IC50 | Compound
1 to 10 nM | CC(C)n1nnnc1-c1cccc(NC(=O)c2cc(-n3cnc(C4CC4)c3)c(C(F)(F)F)cc2F)n1 [Example 37a]
1 to 10 nM | Cc1cc(F)c(C(=O)Nc2cccc(-c3nnnn3CC(C)(C)C)n2)cc1-n1cnc(C2CC2)c1 [Example 13a]
1 to 10 nM | C[C@H](CO)n1nnnc1-c1cccc(NC(=O)c2cc(-n3cnc(C4CC4)c3)c(C(F)(F)F)cn2)n1 [Example 58a]
< 1 nM | Cc1cc(F)c(C(=O)Nc2cccc(-c3nnnn3C(CO)CO)n2)cc1-n1cnc(C2CC2)c1 [Example 26a]
1 to 10 nM | Cc1cc(F)c(C(=O)Nc2cccc(-c3nnnn3[C@H](C)CF)n2)cc1-n1cnc(C2CC2)c1 [Example 14a]
1 to 10 nM | Cc1cc(F)c(C(=O)Nc2cccc(-c3nnnn3CC(F)F)n2)cc1-n1cnc(C2CC2)c1 [Example 12a]
10 to 100 nM | CC(C)n1nnnc1-c1cccc(NC(=O)c2cc(-n3cnc(C4CC4)c3)c(N3CCCCC3)cn2)n1 [Example 40a]
1 to 10 nM | Cc1cc(F)c(C(=O)Nc2cccc(-c3nnnn3[C@H]3CCOC3)n2)cc1-n1cnc(C2CC2)c1 [Example 18a]
1 to 10 nM | Cc1cc(F)c(C(=O)Nc2cccc(-c3nnnn3C3CCC3)n2)cc1-n1cnc(C2CC2)c1 [Example 10a]
1 to 10 nM | Cc1cnc(C(=O)Nc2cccc(-c3nnnn3[C@H](C)CO)n2)cc1-n1cnc(C(F)(F)F)c1 [Example 51a]
10 to 100 nM | CC(=O)NC[C@@H](C)n1nnnc1-c1cccc(NC(=O)c2cc(-n3cnc(C4CC4)c3)c(C)cc2F)n1 [Example 20a]
10 to 100 nM | Cc1cc(F)c(C(=O)Nc2ccnc(-c3nnnn3C(C)C)n2)cc1-n1cnc(C2CC2)c1 [Example 34a]
1 to 10 nM | Cc1cc(F)c(C(=O)Nc2cccc(-c3nnnn3[C@@H](C)CF)n2)cc1-n1cnc(C2CC2)c1 [Example 15a]
1 to 10 nM | Cc1cnc(C(=O)Nc2cccc(-n3nnnc3C(C)C)n2)cc1-n1cnc(C2CC2)c1 [Example 3b]
10 to 100 nM | Cc1cnc(C(=O)Nc2cccc(-c3nnnn3C(C)C)n2)cc1-n1cnc(C2CC2)c1 [Example 48a]
1 to 10 nM | Cc1cnc(C(=O)Nc2cccc(-c3nnnn3[C@H](C)CO)n2)cc1-n1cnc(C(C)(C)C)c1 [Example 53a]
1 to 10 nM | Cc1cc(F)c(C(=O)Nc2cccc(-c3nnnn3[C@H](C)CCO)n2)cc1-n1cnc(C2CC2)c1 [Example 22a]
10 to 100 nM | Cc1cc(F)c(C(=O)Nc2cccc(-c3nnnn3CC(C)C)n2)cc1-n1cnc(C2CC2)c1 [Example 9a]
1 to 10 nM | Cc1cc(F)c(C(=O)Nc2cccc(-c3nnnn3[C@H](C)CO)n2)cc1-n1cnc(C2CC2)c1 [Example 7a, (R)-5-(4-cyclopropyl-1H-imidazol-1-yl)-2-fluoro-N-(6-(1-(1-hydroxypropan-2-yl)-1H-tetrazol-5-yl)pyridin-2-yl)-4-methylbenzamide]
1 to 10 nM | Cc1cc(F)c(C(=O)Nc2cccc(-n3nnnc3C(C)C)n2)cc1-n1cnc(C(C)(C)C)c1 [Example 6b]
1 to 10 nM | CC(C)n1nnnc1-c1cccc(NC(=O)c2cc(-n3cnc(C4CC4)c3)c(C(F)(F)F)cn2)n1 [Example 57a]
1 to 10 nM | CC(C)n1nnnc1-c1cccc(NC(=O)c2cc(-n3cnc(C4CC4)c3)c(N3CCN(C)CC3)cn2)n1 [Example 47a]
1 to 10 nM | Cc1cc(F)c(C(=O)Nc2cccc(-c3nnnn3C3CC(F)(F)C3)n2)cc1-n1cnc(C2CC2)c1 [Example 11a]
1 to 10 nM | Cc1cc(F)c(C(=O)Nc2cccc(-c3nnnn3[C@H](C)CO)n2)cc1-n1cnc(C(F)(F)F)c1 [Example 28a]
1 to 10 nM | Cc1cc(F)c(C(=O)Nc2cccc(-n3nnnc3C(C)C)n2)cc1-n1cnc(C2CC2)c1 [Example 1b, 5-(4-cyclopropyl-1H-imidazol-1-yl)-2-fluoro-N-(6-(5-isopropyl-1H-tetrazol-1-yl)pyridin-2-yl)-4-methylbenzamide]

Compound | IC50
C[C@H](CO)n1nnnc1-c1cccc(NC(=O)c2cc(-n3cnc(C4CC4)c3)c(CO)cc2F)n1 [Example 33a, (R)-5-(4-cyclopropyl-1H-imidazol-1-yl)-2-fluoro-4-(hydroxymethyl)-N-(6-(1-(1-hydroxypropan-2-yl)-1H-tetrazol-5-yl)pyridin-2-yl)benzamide] | 1 to 10 nM
